Reference: patent US20080119549A1, “METABOLICALLY-[…] FATTY ACID AMIDE HYDROLASE” (N.V. Organon, priority 2006, published 2008)

Columns and labels:
FAAH = target: T1, FAAH (Homo sapiens, UniProt O00519); experiment: FAAH LC-MS/MS screening assay (anandamide hydrolysis by human liver microsomes); details: inhibitor at 30 nM, 60 minute incubation at 37° C.
T1 sequence (O00519 1-579): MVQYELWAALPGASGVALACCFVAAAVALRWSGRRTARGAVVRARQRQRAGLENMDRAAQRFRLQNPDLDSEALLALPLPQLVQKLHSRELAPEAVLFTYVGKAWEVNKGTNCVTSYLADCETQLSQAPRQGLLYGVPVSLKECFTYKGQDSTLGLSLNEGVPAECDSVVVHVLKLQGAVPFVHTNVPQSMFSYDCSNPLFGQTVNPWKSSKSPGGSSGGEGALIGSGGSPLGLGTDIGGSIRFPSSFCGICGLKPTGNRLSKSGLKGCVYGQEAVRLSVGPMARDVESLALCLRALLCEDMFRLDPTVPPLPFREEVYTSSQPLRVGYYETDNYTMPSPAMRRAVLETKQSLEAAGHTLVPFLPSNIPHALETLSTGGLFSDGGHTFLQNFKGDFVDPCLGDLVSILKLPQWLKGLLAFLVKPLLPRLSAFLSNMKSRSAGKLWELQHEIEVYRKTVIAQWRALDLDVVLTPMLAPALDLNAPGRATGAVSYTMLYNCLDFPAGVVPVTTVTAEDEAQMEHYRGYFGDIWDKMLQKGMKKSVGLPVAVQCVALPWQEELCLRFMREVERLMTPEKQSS
Description: The following are combined in a 5-mL glass tube: anandamide (5 μL of 200 ug/mL), 960 μL of 50 mM ammonium phosphate buffer (pH 7.4) containing 0.125% BSA (w/v), 10 μL of DMSO without (control) or with a FAAH inhibitor (1 μg/mL), and 25 μL of human liver microsomes (31.3/g). Prior to incubation, a 100 μL aliquot is transferred to a 96-well plate containing 0.25 mL of acetonitrile and D4 (deuterated) anandamide (0.2 #M). Each 5-mL tube is capped and placed in a shaking water bath maintained at 37° C. for 60 minutes. After a 60 minute incubation, a second 100 μL aliquot is transferred to a 96-well plate as performed earlier. The 96-well plate is then capped, vortex mixed, and placed on an HPLC for liquid chromatography/tandem mass spectrometry (LC/MS/MS) analyses. HPLC is carried out on a Waters 2790 Alliance system (Milford, Mass.). […] The samples are analyzed using an electrospray probe in the positive ionization mode with the cone voltage set at 40 V and capillary at 3.2 kV. […] An area ratio response (anandamide area response/D4 anandamide area response) was determined for each sample. Percent anandamide hydrolysis of each sample is determined by the following equation, [(T=0 response)−(T=60 response)/T=0 response]*100. The percent hydrolysis normalized to control is determined by dividing the % hydrolysis of test sample by the % hydrolysis of the control sample.

[1] = Metabolic stability in human liver S9 fractions (half-life in vitro); assay type: in vitro ADME; details: pH 7.2, Human S9 ½ life in-vitro, read-out: half-life in human S9 cells
Description: Generally, a FAAH inhibitor was incubated in human liver S9 fractions. Incubations were conducted at 37° C. in a potassium phosphate buffer (pH 7.2). NADPH and a regenerating system consisting of NADP, glucose 6-phosphate dehydrogenase were provided to the incubates. Incubations were terminated by the addition of methanol and freezing at −80° C. See, e.g., Singh, R. et al. Rapid Commun. Mass Spectrom., 10: 1019-26 (1996).

Row | Structure (SMILES) | anandamide hydrolysis compared to the control (FAAH) [%] | half-life [1] [min]
1 | CC1(C)CCC(NC(=O)Oc2cccc(-c3cccc(C(N)=O)c3)c2)CC1 [Example 1, (4,4-dimethylcyclohexyl)carbamic acid 3′carbamoylbiphenyl-3-yl ester] | < 50 | 
2 | NC(=O)c1cccc(-c2cccc(OC(=O)NC3CCCCC3)c2)c1 [KDS-4103] | 30 | ~30
